What was measured:
[1] = molecular target: T1, Sodium/glucose cotransporter 2 (Mus musculus) (UniProt Q923I7); assay: In vivo inhibition of SGLT2-mediated reduction in urinary glucose excretion in mouse administered orally; assay type: functional, organism-based; conditions: route po
T1 sequence (whole entry): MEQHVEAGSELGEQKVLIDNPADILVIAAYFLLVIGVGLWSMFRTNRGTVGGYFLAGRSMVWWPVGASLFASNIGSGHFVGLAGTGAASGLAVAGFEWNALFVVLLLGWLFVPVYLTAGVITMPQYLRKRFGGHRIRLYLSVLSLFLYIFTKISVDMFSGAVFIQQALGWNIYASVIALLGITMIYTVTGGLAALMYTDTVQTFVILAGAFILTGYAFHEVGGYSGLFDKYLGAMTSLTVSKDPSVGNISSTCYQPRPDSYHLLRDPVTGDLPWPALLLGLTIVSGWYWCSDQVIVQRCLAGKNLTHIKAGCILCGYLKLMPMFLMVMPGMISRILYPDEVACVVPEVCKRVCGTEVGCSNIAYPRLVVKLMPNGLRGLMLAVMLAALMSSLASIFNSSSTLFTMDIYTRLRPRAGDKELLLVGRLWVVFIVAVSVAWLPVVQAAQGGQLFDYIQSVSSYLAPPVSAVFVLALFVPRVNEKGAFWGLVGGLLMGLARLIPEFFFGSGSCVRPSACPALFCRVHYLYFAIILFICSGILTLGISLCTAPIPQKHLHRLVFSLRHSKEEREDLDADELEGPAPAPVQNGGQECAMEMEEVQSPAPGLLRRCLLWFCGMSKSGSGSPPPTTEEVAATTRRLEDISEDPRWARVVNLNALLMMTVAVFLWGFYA

[2] = molecular target: T2, Sodium/glucose cotransporter 2 (Rattus norvegicus) (UniProt P53792); assay: In vivo inhibition of SGLT2-mediated reduction in urinary glucose excretion in rat administered orally; assay type: functional, organism-based; conditions: route po
T2 sequence (whole entry): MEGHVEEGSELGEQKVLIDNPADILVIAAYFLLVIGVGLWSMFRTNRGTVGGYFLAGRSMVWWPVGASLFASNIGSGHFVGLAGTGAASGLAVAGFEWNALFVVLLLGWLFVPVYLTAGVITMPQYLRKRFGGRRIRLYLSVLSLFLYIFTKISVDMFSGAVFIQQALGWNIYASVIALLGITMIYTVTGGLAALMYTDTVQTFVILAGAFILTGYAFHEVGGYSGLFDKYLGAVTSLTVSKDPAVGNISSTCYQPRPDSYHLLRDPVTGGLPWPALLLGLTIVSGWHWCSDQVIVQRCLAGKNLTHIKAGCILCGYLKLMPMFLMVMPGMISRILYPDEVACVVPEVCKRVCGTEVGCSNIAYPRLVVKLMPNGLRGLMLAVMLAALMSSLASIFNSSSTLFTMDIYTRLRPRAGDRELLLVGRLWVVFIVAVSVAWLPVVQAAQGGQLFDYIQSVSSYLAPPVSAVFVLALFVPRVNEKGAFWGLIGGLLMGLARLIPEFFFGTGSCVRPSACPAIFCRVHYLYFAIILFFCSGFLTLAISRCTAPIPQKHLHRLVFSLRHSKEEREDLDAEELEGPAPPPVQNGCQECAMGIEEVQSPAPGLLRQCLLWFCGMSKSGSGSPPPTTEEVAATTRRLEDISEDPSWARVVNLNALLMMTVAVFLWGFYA

[3] = molecular target: T1, Sodium/glucose cotransporter 2 (Mus musculus); assay: In vivo inhibition of SGLT2-mediated increase in blood glucose level in mouse administered intraperitoneally; assay type: functional, organism-based; conditions: route ip
[4] = molecular target: T3, Sodium/glucose cotransporter 1 (Homo sapiens, UniProt P13866); assay: Inhibition of SGLT1 (unknown origin)
T3 sequence (P13866 whole entry): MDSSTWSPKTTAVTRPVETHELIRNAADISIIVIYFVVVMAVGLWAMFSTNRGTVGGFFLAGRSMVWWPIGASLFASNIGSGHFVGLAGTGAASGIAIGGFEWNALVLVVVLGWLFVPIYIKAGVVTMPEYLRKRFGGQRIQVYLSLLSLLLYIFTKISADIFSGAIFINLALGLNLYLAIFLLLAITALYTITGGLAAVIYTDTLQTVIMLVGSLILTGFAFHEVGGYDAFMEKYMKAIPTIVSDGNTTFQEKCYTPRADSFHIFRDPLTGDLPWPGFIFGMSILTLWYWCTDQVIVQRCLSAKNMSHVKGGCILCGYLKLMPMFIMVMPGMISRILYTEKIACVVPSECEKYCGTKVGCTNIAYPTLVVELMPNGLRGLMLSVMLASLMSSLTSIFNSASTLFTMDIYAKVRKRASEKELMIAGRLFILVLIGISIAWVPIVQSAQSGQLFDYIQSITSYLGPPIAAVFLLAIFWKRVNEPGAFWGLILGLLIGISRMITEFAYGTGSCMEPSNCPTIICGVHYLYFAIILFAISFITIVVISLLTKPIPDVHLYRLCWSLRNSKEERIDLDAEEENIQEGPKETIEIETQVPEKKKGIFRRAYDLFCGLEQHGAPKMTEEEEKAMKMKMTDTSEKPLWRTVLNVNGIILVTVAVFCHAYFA

[5] = molecular target: T1, Sodium/glucose cotransporter 2 (Mus musculus); assay: In vivo inhibition of SGLT2-mediated increase in blood glucose level in mouse administered orally; assay type: functional, organism-based; conditions: route po
[6] = molecular target: T3, Sodium/glucose cotransporter 1; assay: Inhibition of human SGLT1 expressed in HEK293 cells using 14C-AMG as substrate preincubated for 15 mins followed by substrate addition measured after 2 hrs by liquid scintillation counter analysis; assay type: cell-based
[7] = molecular target: T4, Sodium/glucose cotransporter 2 (Homo sapiens, UniProt P31639); assay: Inhibition of human SGLT2 expressed in HEK293 cells using 14C-AMG as substrate preincubated for 15 mins followed by substrate addition measured after 2 hrs by liquid scintillation counter analysis; assay type: cell-based
T4 sequence (P31639 whole entry): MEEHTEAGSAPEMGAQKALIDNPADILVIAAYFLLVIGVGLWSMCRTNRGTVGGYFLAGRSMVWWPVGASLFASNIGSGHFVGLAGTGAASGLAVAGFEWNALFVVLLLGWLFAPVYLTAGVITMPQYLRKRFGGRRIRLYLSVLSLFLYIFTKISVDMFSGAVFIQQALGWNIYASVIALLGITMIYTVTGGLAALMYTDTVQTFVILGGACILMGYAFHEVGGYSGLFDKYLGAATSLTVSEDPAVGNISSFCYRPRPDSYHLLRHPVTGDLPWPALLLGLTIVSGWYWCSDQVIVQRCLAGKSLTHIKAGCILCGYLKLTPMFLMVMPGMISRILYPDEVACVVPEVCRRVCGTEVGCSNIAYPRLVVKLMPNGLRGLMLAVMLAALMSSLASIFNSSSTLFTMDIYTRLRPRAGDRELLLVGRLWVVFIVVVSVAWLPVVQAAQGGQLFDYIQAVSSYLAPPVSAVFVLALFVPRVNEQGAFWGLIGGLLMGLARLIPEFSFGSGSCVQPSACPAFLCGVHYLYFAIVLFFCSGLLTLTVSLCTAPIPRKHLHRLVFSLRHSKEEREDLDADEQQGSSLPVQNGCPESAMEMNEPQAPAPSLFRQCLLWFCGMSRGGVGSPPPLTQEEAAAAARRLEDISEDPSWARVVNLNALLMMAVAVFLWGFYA

[8] = molecular target: T5, Sodium/glucose cotransporter 2 (Rattus norvegicus, UniProt P53792); assay: Inhibition of rat SGLT2
T5 sequence (P53792 whole entry): T2 sequence (whole entry)

[9] = molecular target: T4, Sodium/glucose cotransporter 2; assay: Inhibition of human SGLT2
[10] = molecular target: T6, Sodium/glucose cotransporter 2 (Mus musculus, UniProt Q923I7); assay: Inhibition of mouse SGLT2
T6 sequence (Q923I7 whole entry): T1 sequence (whole entry)

## COc1ccc(Cc2sccc2O[C@@H]2O[C@H](CO)[C@@H](O)[C@H](O)[C@H]2O)cc1 [ATIGLIFLOZIN]
[1]
  ID30: 79 mg/kg
[2]
  ID30: 39.8 mg/kg
[3]
  ID50: 13.2 mg/kg
[4]
  IC50: > 10 µM
[5]
  ID50: 26.1 mg/kg

## CCOc1ccc(Cc2cc([C@@]34OC[C@@](CO)(O3)[C@@H](O)[C@H](O)[C@H]4O)ccc2Cl)cc1F [HENAGLIFLOZIN]
[6]
  IC50: 4.32 µM
[7]
  IC50: 0.00238 µM

## CCOC(=O)OC[C@H]1O[C@@H](Oc2nn(C(C)C)c(C)c2Cc2ccc(OC(C)C)cc2)[C@H](O)[C@@H](O)[C@@H]1O [REMOGLIFLOZIN ETABONATE]
[8]
  Ki: 2.14 µM
[9]
  Ki: 1.95 µM

## CCc1ccc(Cc2ccc3c(c2)[C@]2(OC3)O[C@H](CO)[C@@H](O)[C@H](O)[C@H]2O)cc1 [TOFOGLIFLOZIN]
[8]
  Ki: 0.0149 µM
[9]
  Ki: 0.0029 µM
[10]
  Ki: 0.0064 µM

— ChEMBL document CHEMBL6071121, “Synthetic approaches and clinical application of small-molecule inhibitors of sodium-dependent glucose transporters 2 for the treatment of type 2 diabetes mellitus” (Eur J Med Chem, 2024)
